Measured values: publication PMC11407372, “New imidazolidindionedioximes and their Pt(II) complexes: synthesis and investigation of their antitumoral activities on breast cancer cells” (Turkish Journal of Chemistry, 2024)

Key:
[1] = tested on: CCD-1079Sk healthy fibroblast cell line; assay: MTT cytotoxicity assay; type: cell-based; conditions: 24 h, mean ± standard deviation
Method: (§1) CCD-1079Sk healthy fibroblast cell line, MCF-7, and MDA-MB-231 breast cancer cell lines were used in this study. The cells were grown in DMEM/F12 medium containing 10% fetal bovine serum (FBS) and 100 U/mL penicillin/streptomycin at 37 °C in a humidified incubator with 5% CO2. After bringing 80% confluency, the cells were detached using a trypsin solution. For further experiments, cells were resuspended in the growth medium after collection and centrifugation.
(§2) To determine cytotoxicity, the MTT assay was performed using L1aPt-m, L1bPt-m, L1cPt-m, L1aPt-b, L1bPt-b, L1cPt-b, cisPt, and bicalutamide (bical) samples at 10 different concentrations ranging from 100 μM to 0.19 μM (100, 50, 25, 12.5, 6.25, 3.12, 1.56, 0.78, 0.39, and 0.19 μM). The samples were dissolved in DMSO and diluted with the medium. Initial DMSO concentration was kept below 1% to avoid toxicity from the solvent. Briefly, the cells were seeded to 96-well plates at 5 × 10^3 cells/well in a volume of 200 μL, and cells were inoculated overnight. After that, old medium was removed, 100 μL of fresh medium and 100 μL of sample were added to the wells. The cells were incubated with the samples for 24 h. At the end of incubation with the samples, 30 μL of 3-(4,5-dimethylthiazol-2-yl)-2,5-diphenyltetrazolium bromide (MTT) solution was added. After 3 h the medium was removed and 100 μL of DMSO was added to dissolve the formazan crystals. Then the absorbance values were recorded at 540 nm using an ELISA microplate reader (Synergy H1, BioTek). All the experiments were carried out in triplicates, and the results were presented as a mean ± standard deviation. The IC50 values of samples were calculated using a percentage of relative cell viability via GraphPad Prism 5. The viability percentages of cells were calculated using the following formula:
(§3) %relative cell viability=(Abssample/Abscontrol)×100.

[2] = tested on: MCF-7 human breast cancer cell line; assay: MTT cytotoxicity assay; type: cell-based; conditions: mean ± standard deviation
Method: as §1, §2, §3

[3] = tested on: MDA-MB-231 human breast cancer cell line; assay: MTT cytotoxicity assay; type: cell-based; conditions: mean ± standard deviation
Method: as §1, §2, §3

MDA-MB-231 cells [4] = assay: Apoptosis assay (Annexin V/7-AAD, flow cytometry); type: cell-based, human; conditions: sample at IC50 concentration, 24 h
Method: (§4) FITC-Annexin V/7-AAD kit was used for the apoptosis experiment. Briefly, the cells were seeded into 12-well plates at 2 × 10^5 cells/well in 1 mL volume and cells were inoculated overnight. After that, 500 μL of fresh medium and 500 μL of sample at the concentration of IC50 were added to the wells. The cells were incubated with the samples for 24 h, then detached using 0.5 mL of trypsin solution, cells were collected and centrifuged at 3000 g for 3 min. The cells were washed with 200 μL of cell staining buffer, then dispersed in 100 μL of binding buffer. Following this, 5 μL of FITC-Annexin V and 10 μL of 7-AAD were added, and the mixture was incubated in the dark for 30 min. The samples were then analyzed by flow cytometry.
(§5) The Annexin V conjugated Alexa Fluor 488/7-AAD binding assay is based on the difference in fluorescence intensity between apoptotic and nonapoptotic cells stained with the fluorescent Annexin V/7-AAD, which is measured by flow cytometry. Therefore, an apoptosis assay was performed to determine the rate of live, apoptotic, and necrotic cells (Table 2, Figure S43). It is seen that compounds induce early and late apoptosis in MDA-MB-231 cells.

CCD-1079Sk cells = assay: Apoptosis assay (Annexin V/7-AAD, flow cytometry); type: cell-based; conditions: sample at IC50 concentration, 24 h
Method: as §4, §5

MCF-7 cells [5] = assay: Apoptosis assay (Annexin V/7-AAD, flow cytometry); type: cell-based, human; conditions: sample at IC50 concentration, 24 h
Method: as §4
as §5, with “It is seen that compounds induce early and late apoptosis in MDA-MB-231 cells.” left out

MCF-7 cells [6] = assay: Cell cycle assay (PI, flow cytometry); type: cell-based, human; conditions: sample at IC50 concentration, 24 h; 59.5% in control cells
Method: (§6) The cell cycle kit was used for the cell cycle experiment. Briefly, the cells were seeded into 12-well plates in a volume of 1 mL at 2 × 10^5 cells/well, and cells were inoculated overnight. After that, 500 μL of fresh medium and 500 μL of the sample at the concentration of IC50 were added to the wells. The cells were incubated with the samples for 24 h, then detached using 0.5 mL of trypsin solution, cells were collected and centrifuged at 3000 g for 3 min. The collecting cells were washed with 1 mL of PBS and fixed with 1 mL of 70% cold ethanol at −20 °C for 24 h. After that, 200 μL of staining solution containing propidium iodide (PI) and RNAse reagents were added to the cells, and the cells were incubated for 30 min in the dark. Cell cycle profiles of synthesized compounds were analyzed using a flow cytometer (BD Accuri C6). The data were analyzed through BD software. Each assay was investigated in triplicate.

MDA-MB-231 cells [7] = assay: Cell cycle assay (PI, flow cytometry); type: cell-based, human; conditions: for MDA-MB-231 cell population in the G1-phase: sample at IC50 concentration, 24 h, 24.5% in control cells; for effect on cell cycle: summary in conclusion, MDA-MB-231 and/or MCF-7
Method: as §6

| SMILES | IC50 ([1]; Fibroblast) | IC50 ([2]; Homo sapiens, MCF7, 24 h) | IC50 ([3]; Homo sapiens, MDA-MB-231, 24 h) | cell % Apoptotic, MDA-MB-231 (MDA-MB-231 cells [4]) | cell % Necrotic, MDA-MB-231 (MDA-MB-231 cells [4]) | cell % Apoptotic, CCD-1079Sk (CCD-1079Sk cells) | cell % Apoptotic, MCF-7 (MCF-7 cells [5]) | cell % Necrotic, MCF-7 (MCF-7 cells [5]) | IC50 [1] | IC50 ([2]; 24 h) | IC50 ([3]; 24 h) | cell % Necrotic, CCD-1079Sk (CCD-1079Sk cells) | MCF-7 cell population in the G1-phase (MCF-7 cells [6]) | MDA-MB-231 cell population in the G1-phase (MDA-MB-231 cells [7]) | effect on cell cycle (MDA-MB-231 cells [7]) | apoptosis induction in MCF-7 cells (MCF-7 cells [5]) |
| --- | --- | --- | --- | --- | --- | --- | --- | --- | --- | --- | --- | --- | --- | --- | --- | --- |
| CC(O)(CS(=O)(=O)c1ccc(F)cc1)C(=O)Nc1ccc(C#N)c(C(F)(F)F)c1 (centres unmarked) [Bical, bicalutamide, reference compound] | 9.16 ± 3.18 µM | 3.78 ± 1.85 µM | 8.34 ± 6.39 µM | 6.70 ± 0.28% | 1.95 ± 0.21% | 5.10 ± 0.21% | 2.05 ± 0.03% | 6.35 ± 1.20% | – | – | – | – | – | – | – | – |
| N.N.[Cl][Pt][Cl] [CisPt, cis-diamminedichloroplatinum(II), reference compound] | – | – | – | 14.95 ± 0.74% | 1.55 ± 0.21% | 5.00 ± 0.07% | 3.45 ± 0.03% | 1.10 ± 0.14% | 27.9 ± 7.24 µM | 3.98 ± 1.44 µM | 9.16 ± 7.74 µM | 3.90 ± 0.14% | – | – | – | – |
| [O-]N=C1C(=NO)N(c2ccccc2)CN1c1ccccc1.[O-]N=C1C(=NO)N(c2ccccc2)CN1c1ccccc1.[Pt+2] [L 1a Pt-b] | – | – | – | 7.65 ± 0.25% | 1.15 ± 0.07% | 3.65 ± 0.03% | 4.65 ± 0.81% | 0.95 ± 0.35% | 47.8 ± 6.42 µM | 5.58 ± 2.29 µM | 5.26 ± 5.53 µM | 4.15 ± 0.21% | 64.4% | 49.6% | regulate the cell cycle and increase the G1 population | – |
| O[N+]1=C2C(=[N+](O)[Pt-2]1([Cl])[Cl])N(c1ccccc1)CN2c1ccccc1 [L 1a Pt-m] | – | – | – | 9.35 ± 0.46% | 0.65 ± 0.21% | 2.65 ± 0.11% | – | 5.45 ± 1.06% | 59.5 ± 5.34 µM | 8.97 ± 5.28 µM | 9.63 ± 7.71 µM | – | – | 36.1% | regulate the cell cycle and increase the G1 population | induces more cancerous cells to undergo apoptosis |
| [O-]N=C1C(=NO)N(c2ccc(F)cc2)CN1c1ccc(F)cc1.[O-]N=C1C(=NO)N(c2ccc(F)cc2)CN1c1ccc(F)cc1.[Pt+2] [L 1b Pt-b] | – | – | – | 7.45 ± 0.39% | 2.65 ± 0.07% | 1.90 ± 0.07% | 2.95 ± 0.11% | 2.20 ± 0.14% | 67.9 ± 5.11 µM | 9.57 ± 5.41 µM | 9.73 ± 7.28 µM | 1.25 ± 0.07% | – | – | – | – |
| O[N+]1=C2C(=[N+](O)[Pt-2]1([Cl])[Cl])N(c1ccc(F)cc1)CN2c1ccc(F)cc1 [L 1b Pt-m] | – | – | – | 5.95 ± 0.25% | 0.65 ± 0.07% | – | 3.65 ± 0.18% | 0.95 ± 0.21% | 54.6 ± 6.25 µM | 6.91 ± 3.16 µM | 8.64 ± 7.71 µM | – | – | – | – | – |
| [O-]N=C1C(=NO)N(c2ccc(F)cc2F)CN1c1ccc(F)cc1F.[O-]N=C1C(=NO)N(c2ccc(F)cc2F)CN1c1ccc(F)cc1F.[Pt+2] [L 1c Pt-b] | – | – | – | 8.00 ± 0.21% | 3.20 ± 0.14% | 1.85 ± 0.03% | 2.05 ± 0.03% | 5.35 ± 1.34% | 73.9 ± 4.96 µM | 5.9 ± 2.04 µM | 6.94 ± 5.57 µM | 1.80 ± 0.14% | 64.1% | – | regulate the cell cycle and increase the G1 population | induces more cancerous cells to undergo apoptosis |
| O[N+]1=C2C(=[N+](O)[Pt-2]1([Cl])[Cl])N(c1ccc(F)cc1F)CN2c1ccc(F)cc1F [L 1c Pt-m] | – | – | – | 6.20 ± 0.14% | 0.55 ± 0.07% | 3.45 ± 0.03% | 5.95 ± 0.46% | 3.40 ± 0.71% | 45.2 ± 5.55 µM | 5.56 ± 2.39 µM | 25 ± 6.61 µM | 3.25 ± 0.07% | – | – | – | induces more cancerous cells to undergo apoptosis |
